Test results published in PubChem BioAssay AID504827 (Southern Research Specialized Biocontainment Screening …, 2011).
Active and inactive are the calls of the source. The rule behind the calls is not given here.

Assays:
[1] = RSV cytopathic effect inhibition, dose response, cell-based, synthesized compounds, set 10 (AID 504827); conditions: RSV-infected cells, CPE inhibition; at 200 µM (top of the series)
[2] = system: RSV-infected cells, CPE inhibition; experiment: as above

| SMILES | CPE inhibition [1] | IC50 [2] |
| --- | --- | --- |
| Cc1cc(NC(=O)[C@@H]2CCCN2S(=O)(=O)c2cccc3cccnc23)n(C(C)(C)C)n1 | 4.92% (inactive) | – |
| Cc1ccc(NC(=O)[C@@H]2CCCN2S(=O)(=O)c2cccc3cccnc23)c(C)c1 | – | 2.1 µM |
| COc1ccc(C)c(NC(=O)[C@@H]2CCCN2S(=O)(=O)c2cccc3cccnc23)c1 | – | 4.6 µM |
| Cc1ccc(Cn2c(=O)n(Cc3ccc(C(=O)Nc4ccncc4)cc3)c(=O)c3ccccc32)cc1 | – | 9.9 µM |
